Tests used:
VvSTO6 = target: T1, VvSTO6 (Vitis vinifera, UniProt A0A0S3QPS9); assay: GC-MS of reaction products, recombinant yeast microsomes; type: biochemical; conditions: 100 μM substrate, 1 mM NADPH, 50 mM Tris-HCl pH 7.5, 30 °C, 2 h; unidentified products presumed mono-hydroxylated sesquiterpenes
T1 construct: gene CYP71BE10
T1 sequence (A0A0S3QPS9 1-505): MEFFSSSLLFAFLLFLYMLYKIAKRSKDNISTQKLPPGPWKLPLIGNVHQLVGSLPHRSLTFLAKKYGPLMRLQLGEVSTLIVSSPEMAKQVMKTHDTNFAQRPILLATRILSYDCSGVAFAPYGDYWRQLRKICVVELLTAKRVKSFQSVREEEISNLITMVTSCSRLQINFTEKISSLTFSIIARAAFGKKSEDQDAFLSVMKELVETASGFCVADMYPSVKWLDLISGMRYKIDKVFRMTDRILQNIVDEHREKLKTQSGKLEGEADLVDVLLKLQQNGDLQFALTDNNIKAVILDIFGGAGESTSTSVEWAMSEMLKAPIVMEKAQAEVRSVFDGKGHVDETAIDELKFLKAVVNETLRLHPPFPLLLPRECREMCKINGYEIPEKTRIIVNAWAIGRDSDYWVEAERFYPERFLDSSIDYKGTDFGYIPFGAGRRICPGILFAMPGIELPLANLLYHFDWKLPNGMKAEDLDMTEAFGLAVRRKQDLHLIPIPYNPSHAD

VvSTO4 = target: T2, VvSTO4 (Vitis vinifera, UniProt A0A0S3QPU4); assay: as above; type: biochemical; conditions: 100 μM substrate, 1 mM NADPH, 50 mM Tris-HCl pH 7.5, 30 °C, 2 h; unidentified products presumed mono-hydroxylated sesquiterpenes
T2 construct: gene CYP71BE1
T2 sequence (A0A0S3QPU4 1-504): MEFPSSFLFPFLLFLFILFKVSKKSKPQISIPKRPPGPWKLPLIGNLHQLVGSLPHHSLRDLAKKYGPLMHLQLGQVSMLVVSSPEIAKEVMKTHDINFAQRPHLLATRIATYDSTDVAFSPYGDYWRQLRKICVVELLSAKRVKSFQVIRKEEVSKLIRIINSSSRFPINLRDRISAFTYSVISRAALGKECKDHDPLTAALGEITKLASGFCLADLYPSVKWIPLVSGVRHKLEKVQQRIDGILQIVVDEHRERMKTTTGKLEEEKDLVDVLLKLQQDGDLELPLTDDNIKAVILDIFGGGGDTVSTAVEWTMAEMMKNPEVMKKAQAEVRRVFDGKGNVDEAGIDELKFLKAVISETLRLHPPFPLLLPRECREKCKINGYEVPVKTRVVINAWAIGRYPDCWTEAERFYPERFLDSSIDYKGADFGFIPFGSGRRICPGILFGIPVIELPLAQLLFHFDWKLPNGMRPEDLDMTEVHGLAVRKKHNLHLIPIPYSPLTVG

[1] = substrate: C=C(C)[C@@H]1CCC2=CCC[C@@H](C)[C@]2(C)C1; assay: cells, lysate or membranes; conditions: 1 mM NADPH, 50 mM Tris-HCl pH 7.5, 30 °C, 30 min, 2–100 μM substrate
[2] = substrate: C=C(C)[C@@H]1CC[C@H](C)C2=C(C1)[C@@H](C)CC2; assay: GC-MS (SBSE) of (−)-rotundone formation, Hanes-Woolf plot, recombinant yeast microsomes; type: biochemical, Vitis vinifera; conditions: 1 mM NADPH, 50 mM Tris-HCl pH 7.5, 30 °C, 30 min, 2.6–130 μM substrate

C=C(C)[C@@H]1CC[C@H](C)C2=C(C1)[C@@H](C)CC2 [α-guaiene]
GC-MS of reaction products, recombinant yeast microsomes (VvSTO6): VvSTO4 and VvSTO6 produced several reaction products with α-guaiene as a substrate | GC-MS of reaction products, recombinant yeast microsomes (VvSTO4): VvSTO4 and VvSTO6 produced several reaction products with α-guaiene as a substrate

B1: VvSTO2 (Vitis vinifera) (protein)
chain: MELQFSFFPILCTFLLFIYLLKRLGKPSRTNHPAPKLPPGPWKLPIIGNMHQLVGSLPHRSLRSLAKKHGPLMHLQLGEVSAIVVSSREMAKEVMKTHDIIFSQRPCILAASIVSYDCTDIAFAPYGGYWRQIRKISVLELLSAKRVQSFRSVREEEVLNLVRSVSLQEGVLINLTKSIFSLTFSIISRTAFGKKCKDQEAFSVTLDKFADSAGGFTIADVFPSIKLLHVVSGMRRKLEKVHKKLDRILGNIINEHKARSAAKETCEAEVDDDLVDVLLKVQKQGDLEFPLTMDNIKAVLLDLFVAGTETSSTAVEWAMAEMLKNPRVMAKAQAEVRDIFSRKGNADETVVRELKFLKLVIKETLRLHPPVPLLIPRESRERCAINGYEIPVKTRVIINAWAIARDPKYWTDAESFNPERFLDSSIDYQGTNFEYIPFGAGRRMCPGILFGMANVELALAQLLYHFDWKLPNGARHEELDMTEGFRTSTKRKQDLYLIPITYRPLPVE
Km [1]: 35 µM | Km [2]: 30 µM

Reference: article PMC4737078, “Cytochrome P450 CYP71BE5 in grapevine (Vitis vinifera) catalyzes the formation of the spicy aroma compound (−)-rotundone” (Journal of Experimental Botany, 2015)
